According to article PMC8293625, “HLA class-I-peptide stability mediates CD8^+ T cell immunodominance hierarchies and facilitates HLA-associated immune control of HIV” (Cell Reports, 2021):
Where two headings read alike, the source gives them in different places.

Legend:
HLA-A*0301 = HLA-A*0301 (Homo sapiens, UniProt P04439); assay: Cell-based HLA class I-peptide concentration-based stability assay (TAP-deficient mono-allelic 721.221 cells); conditions: HLA A*03 mono-allelic TAP-deficient 721.221 cells, relative anti-HLA MFI; for Relative HLA MFI (10 uM): peptide 10 uM; for Relative HLA MFI (100 uM): peptide 100 uM
Method: (§1) Controls without peptide, but the corresponding concentration of DMSO, were performed in parallel.

[1] = tested on: HLA class-I alleles A*0101, A*0201, A*0301, A*2402, B*0702, B*0801, B*1402, B*1501, B*2705, B*3501, B*3901, B*4001, B*4402, B*5201, B*5701, B*5801, B*8101 …; assay type: cell-based, human; conditions: relative anti-HLA MFI; for Relative HLA MFI (10 uM): peptide 10 uM; for Relative HLA MFI (100 uM): peptide 100 uM
HLA-B*5701 [2] = target: T1, HLA-B*5701 (Homo sapiens, UniProt P01889, D201E/D98Y/E176V/E187L/E204Q/E69M/E70A/G107R/I90N/K202T/L105A/L119I/N104I/N87E/Q89R/Q94S/R106L/R155S/R180L/R86G/S101N/S121V/S35A/S48A/T118I/V36M/Y140S/Y91M); assay: Cell-based HLA class I-peptide concentration-based stability assay (TAP-deficient mono-allelic 721.221 cells); conditions: for Relative HLA MFI (10 uM) / Relative HLA MFI (100 uM): section B*57, TAP-deficient mono-allelic 721.221 cells, relative anti-HLA MFI; for Relative HLA MFI (10 uM): peptide 10 uM; for Relative HLA MFI (100 uM): peptide 100 uM; for anti-HLA MFI (surface HLA-B*5701): representative (Fig S2B)
Method: as §1

HLA-B*0702 = HLA-B*0702 (Homo sapiens, UniProt P01889); assay: as above; conditions: HLA B*07 mono-allelic TAP-deficient 721.221 cells, relative anti-HLA MFI; for Relative HLA MFI (10 uM): peptide 10 uM; for Relative HLA MFI (100 uM): peptide 100 uM
HLA-B*8101 = HLA-B*8101 (Homo sapiens, UniProt P01889, A269T/D138N/E176V/R180L/T167S/W171L); assay: as above; conditions: relative anti-HLA MFI; for Relative HLA MFI (10 uM): section B*81, peptide 10 uM; for Relative HLA MFI (100 uM): section B*81, peptide 100 uM
HLA-B*5701 [3] = target: T1, HLA-B*5701; assay: Thermal denaturation (differential scanning fluorimetry) of soluble HLA class I-peptide monomers; assay type: binding; conditions: DSF, 2 μM pMHC, SYPRO orange; representative, performed twice as technical triplicates (Fig S4B)
Method: To confirm these observations and further validate the cell-based stability assay, we used an orthogonal approach to evaluate the relationship between HLA class-I-peptide stability and ID by assessing thermal denaturation of soluble HLA class-I-peptide complexes ([Hellman et al., 2016]). In this assay, soluble HLA class-I monomers with bound peptide are incubated in the presence of an environmentally sensitive fluorescent molecule whose fluorescence is enhanced when bound to exposed hydrophobic surfaces during protein unfolding. As a result, the thermal stability (Tm, defined as the temperature at which 50% of the protein is unfolded) of an HLA class-I-peptide complex can be determined by fluorometric measurements during incremental temperature increases, which serve as a proxy for the stabilizing capacity of a bound epitope ([Hellman et al., 2016]).
This relative difference in Tm between ID and SubD epitopes was also observed for HLA-A^∗02 and HLA-B^∗57 (Figure S4) and collectively was statistically significant (Figure 3C).
Expression, refold and purification of the soluble constructs of the pMHCs were performed as previously described ([Pierce et al., 2014]). Briefly, the HLA-A^∗02, HLA-A^∗03 and HLA-B^∗57 heavy chains, and β2-microglobulin were expressed in Escherichia coli and purified as inclusion bodies (IBs). The IBs were solubilized in 8M Urea. Target peptides were provided by the MGH Peptide Core. […]
Differential scanning fluorimetry was performed using a Bio-RAD CFX96 real time PCR system as previously described. Briefly, the excitation and emission wavelengths were set to 587 and 607 nm respectively, and the fluorescence intensity was measured after every 1°C rise in temperature starting from 20°C and going up to 95°C. […] Apparent Tm values were calculated by identifying the point at which the melting transition was 50% complete.

[4] = HLA A*02 mono-allelic TAP-deficient 721.221 cells
[5] = HLA B*08 mono-allelic TAP-deficient 721.221 cells
[6] = HLA B*15 mono-allelic TAP-deficient 721.221 cells
[7] = HLA B*39 mono-allelic TAP-deficient 721.221 cells
[8] = HLA B*35 mono-allelic TAP-deficient 721.221 cells
[9] = HLA B*40 mono-allelic TAP-deficient 721.221 cells
[10] = HLA B*27 mono-allelic TAP-deficient 721.221 cells

Sequence of HLA-B*8101 (P01889 25-362 D138N/T167S/W171L/E176V/R180L/A269T limits assumed): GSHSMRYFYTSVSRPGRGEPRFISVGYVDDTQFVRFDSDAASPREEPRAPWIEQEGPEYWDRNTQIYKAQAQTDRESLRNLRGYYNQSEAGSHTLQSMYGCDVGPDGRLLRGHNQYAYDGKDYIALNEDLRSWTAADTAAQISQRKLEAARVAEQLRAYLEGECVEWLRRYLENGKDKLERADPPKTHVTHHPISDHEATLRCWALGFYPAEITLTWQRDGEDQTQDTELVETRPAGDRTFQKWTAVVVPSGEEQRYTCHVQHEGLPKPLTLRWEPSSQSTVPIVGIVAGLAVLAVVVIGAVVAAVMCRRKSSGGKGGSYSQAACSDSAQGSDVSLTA

Sequence	Relative HLA MFI (10 uM) (HLA-B*5701 [2])	Relative HLA MFI (100 uM) (HLA-B*5701 [2])	Relative HLA MFI (10 uM) (HLA-B*0702)	Relative HLA MFI (100 uM) (HLA-B*0702)	other results
AIFQSSMTK [ATK9]					Relative HLA MFI (10 uM) (HLA-A*0301): 0.3479; Relative HLA MFI (100 uM) (HLA-A*0301): 0.6619
AIIRILQQL [AL9]	0	0.004343			Relative HLA MFI (10 uM) [1, 4]: 0.2439; Relative HLA MFI (100 uM) [1, 4]: 0.5341
AVDLSHFLK [ALK9]					Relative HLA MFI (10 uM) (HLA-A*0301): 0.274; Relative HLA MFI (100 uM) (HLA-A*0301): 0.7814
AVFIHNFKRK [AK10]					Relative HLA MFI (10 uM) (HLA-A*0301): 0.265; Relative HLA MFI (100 uM) (HLA-A*0301): 1
AVRHFPRIW [AW9]	0.4343	0.7818			
ERILSTYLGR [ER10]					Relative HLA MFI (10 uM) (HLA-A*0301): 0.09869; Relative HLA MFI (100 uM) (HLA-A*0301): 0.5827
FPRIWLHGL [FL9 (Vpr)]			0.2812	0.7264	
FPRIWLHGL [FL9]					Relative HLA MFI (10 uM) (HLA-B*8101): 0.69; Relative HLA MFI (100 uM) (HLA-B*8101): 1
FPVTPQVPL [FL9 (Nef)]			0.348	0.9848	
FPVTPQVPLR [FR10]			0.1079	0.5897	
FSPEVIPMF [FF9]	0.003257	0.02714			
GAFDLSFFL [GL9]			0.1155	0.2918	Relative HLA MFI (10 uM) [1, 4]: 0.2773; Relative HLA MFI (100 uM) [1, 4]: 0.6097; Relative HLA MFI (10 uM) [1, 5]: 0.3886; Relative HLA MFI (100 uM) [1, 5]: 0.8634; Relative HLA MFI (10 uM) [1, 6]: 0.06703; Relative HLA MFI (100 uM) [1, 6]: 0.1423; Relative HLA MFI (10 uM) [1, 7]: 0.6524; Relative HLA MFI (100 uM) [1, 7]: 1
HMYISKKAK [HK9]					Relative HLA MFI (10 uM) (HLA-A*0301): 0.2644; Relative HLA MFI (100 uM) (HLA-A*0301): 0.8145
HPRVSSEVHI [HI10]			0.007599	0.6565	
HPVHAGPIA [HA9]			0.3541	0.8359	Relative HLA MFI (10 uM) [1, 8]: 0.57; Relative HLA MFI (100 uM) [1, 8]: 0.8723
HTQGYFPDWQ [HQ10]	0.03149	0.01629			
IATESIVIW [IAW9]	0.4853	1			
IPRRIRQGL [IL9]			0.3754	1	Relative HLA MFI (10 uM) [1, 8]: 0.6542; Relative HLA MFI (100 uM) [1, 8]: 0.68; Relative HLA MFI (10 uM) [1, 9]: 0.518; Relative HLA MFI (100 uM) [1, 9]: 0.8038
ISKKAKGWF [IF9]	0.4093	0.557			

Sequence	Relative HLA MFI (10 uM) (HLA-B*5701 [2])	Relative HLA MFI (100 uM) (HLA-B*5701 [2])	Relative HLA MFI (10 uM) (HLA-B*0702)	Relative HLA MFI (100 uM) (HLA-B*0702)	other results
IVLPEKDSW [IW9 (RT)]	0.4821	0.7481			
KAFSPEVI [KI8]	0.06623	0.2215			
KAFSPEVIPMF [KF11]	0.2215	0.5689			thermal stability (Tm) of HLA-B*5701-peptide complex (HLA-B*5701 [3]): 57 °C; anti-HLA MFI (surface HLA-B*5701) (HLA-B*5701 [2]; absence of β2m): 426; anti-HLA MFI (surface HLA-B*5701) (HLA-B*5701 [2]; presence of β2m (3 µg/mL)): 565
KAIGTVLV [KV8]	0.05212	0			
KTKPPLPSVKK [KK11]					Relative HLA MFI (10 uM) (HLA-A*0301): 0.3455; Relative HLA MFI (100 uM) (HLA-A*0301): 0.9676
LGHGVSIEW [LW9]	0	0.005429			
LRPMTYKAA [LA9]					Relative HLA MFI (10 uM) (HLA-B*8101): 0.0372; Relative HLA MFI (100 uM) (HLA-B*8101): 0.09141; Relative HLA MFI (10 uM) [1, 10]: 0.09012; Relative HLA MFI (100 uM) [1, 10]: 0.09773
LTFGWCFKL [LL9]	0	0			
QAVRIIKILY [QY10]	0	0			
RGPGRAFVTI [RI10]			0.02584	0.4954	Relative HLA MFI (10 uM) [1, 4]: 0.001172; Relative HLA MFI (100 uM) [1, 4]: 0.4741; Relative HLA MFI (10 uM) [1, 10]: 0.4976; Relative HLA MFI (100 uM) [1, 10]: 0.7237
RIRTWKSLVK [RK10]					Relative HLA MFI (10 uM) (HLA-A*0301): 0.3155; Relative HLA MFI (100 uM) (HLA-A*0301): 0.8607
RLRDLLLIVTR [RR11]					Relative HLA MFI (10 uM) (HLA-A*0301): 0; Relative HLA MFI (100 uM) (HLA-A*0301): 0.02843
RPAEPVPLQL [RL10]			0.196	0.848	
SPAIFQSSM [SM9]			0	0.1337	
SPRTLNAWV [SV9]			0	0.114	
STTVKAACWW [SW10]	0.3518	0.4995			
TPGPGVRYPL [TL10]			0	0.1231	
TPVNIIGRNML [TL11]					Relative HLA MFI (10 uM) (HLA-B*8101): 0.7114; Relative HLA MFI (100 uM) (HLA-B*8101): 0.9995
YTPGPGIRY [YY9]	0	0			
